According to patent publication US9827235B2, “Pharmaceutical compositions comprising antibacterial agents” (WOCKHARDT LIMITED, priority 2013, dated 2017):
Like-named read-outs stand apart in the source and are kept apart here.

What was measured:
Format in all cases: cell-based
K. pneumoniae NCTC 13439 = assay: MIC on Muller Hinton Agar (CLSI); details: Klebsiella pneumoniae
Description: (§1) The antibacterial activity of combinations according to the invention was investigated against various bacterial strains. In a typical study, minimum inhibitory concentrations (MIC) were determined using Muller Hinton Agar (MHA) (BD, USA) according to Clinical and Laboratory Standards Institute (CLSI) recommendations, (Clinical and Laboratory Standards Institute (CLSI), Performance Standards for Antimicrobial Susceptibility Testing, 20th Informational Supplement, M 100-S20, Volume 30, No. 1, 2010). In short, the inocula were adjusted to deliver about 10^4 colony forming units (CFU) per spot with a multipoint inoculator (Applied Quality Services, UK). The plates were pored with doubling concentration range of the test combinations according to invention containing MHA. The plates were inoculated and were incubated at 35° C. for 18 hours.

K. pneumoniae B 88 = assay: MIC on Muller Hinton Agar (CLSI); details: Klebsiella pneumoniae
Description: as §1

K. pneumoniae S 50 = assay: MIC on Muller Hinton Agar (CLSI); details: Klebsiella pneumoniae
Description: as §1

E. coli S 30 = assay: MIC on Muller Hinton Agar (CLSI); details: Escherichia coli
Description: as §1

P. aeruginosa S 508 = assay: MIC on Muller Hinton Agar (CLSI); details: Pseudomonas aeruginosa
Description: as §1

E. coli S 35 = assay: MIC on Muller Hinton Agar (CLSI); details: Escherichia coli
Description: as §1

K. pneumoniae B 77 = assay: MIC on Muller Hinton Agar (CLSI); details: Klebsiella pneumoniae
Description: as §1

[1] = test system: P. aeruginosa H 113720186; assay: MIC on Muller Hinton Agar (CLSI); details: Pseudomonas aeruginosa
Description: as §1

E. coli M 44 = assay: MIC on Muller Hinton Agar (CLSI); details: Escherichia coli
Description: as §1

E. coli S 330 = assay: MIC on Muller Hinton Agar (CLSI); details: Escherichia coli
Description: as §1

K. pneumoniae S 48 = assay: MIC on Muller Hinton Agar (CLSI); details: Klebsiella pneumoniae
Description: as §1

P. aeruginosa S 513 = assay: MIC on Muller Hinton Agar (CLSI); details: Pseudomonas aeruginosa
Description: as §1

P. aeruginosa Q-111 = assay: MIC on Muller Hinton Agar (CLSI); details: Pseudomonas aeruginosa
Description: as §1

E. coli S 33 = assay: MIC on Muller Hinton Agar (CLSI); details: Escherichia coli
Description: as §1

P. aeruginosa S 504 = assay: MIC on Muller Hinton Agar (CLSI); details: Pseudomonas aeruginosa
Description: as §1

K. pneumoniae M 3 = assay: MIC on Muller Hinton Agar (CLSI); details: Klebsiella pneumoniae
Description: as §1

E. coli S 16 = assay: MIC on Muller Hinton Agar (CLSI); details: Escherichia coli
Description: as §1

[2] = test system: highly resistant strains of E. coli, K. pneumonia and P. aeruginosa; assay: MIC, summary over the strain panel
Description: as §1

[3] = test system: clinical isolate of K. pneumoniae B 88 producing metallo beta-lactamases [SHV, TEM, NDM-1]; assay: Time kill study; details: for Bacterial count: each agent at 8 mcg/ml, initial count 6.18 log CFU/ml
Description: (§2) Typically, freshly grown cultures were diluted to the required cell density (initial starting inoculum) in Cation adjusted Muller Hinton broth medium BD, USA). The antibacterial agents at the required concentrations were added into the culture-containing medium either alone or in combination. The samples were incubated under shaking condition (120 rpm) at 37° C. Enumeration of viable bacterial count was undertaken, every 2 hour, by diluting in normal saline and plating on to the Tryptic Soya Agar plates (BD, USA). The plates were incubated for 24 hours to arrive at the viable bacterial count. […] The decrease of 1 Log CFU/ml, after administration of combination of present invention, in comparison to initial bacterial count corresponds to 90% killing of bacteria. Similarly, 2 Log CFU/ml reductions corresponds to 99% killing of bacteria and 3 Log CFU/ml reductions is equal to 99.9% killing of bacteria.

[4] = test system: clinical isolate of K. pneumoniae S 48 producing metallo beta-lactamases [SHV, TEM, NDM-1]; assay: Time kill study; details: for Bacterial count: each agent at 8 mcg/ml, initial count 6.84 log CFU/ml
Description: as §2

[5] = used alone at 8 mcg/ml, at the end of 6 hours

CO/N=C(\C(=O)N[C@@H]1C(=O)N2C(C(=O)[O-])=C(C[N+]3(C)CCCC3)CS[C@H]12)c1csc(N)n1 [Cefepime, cefepime]
MIC (K. pneumoniae NCTC 13439; NCTC13439, agent alone, enzymes VIM-1, read-out: MIC): > 32 µg/mL | MIC (K. pneumoniae NCTC 13439; NCTC13439, with compound of Formula (I) at 8 mcg/ml, read-out: MIC (mcg/ml) of cefepime in presence of a compound of Formula (I) (8 mcg/ml)): 1 µg/mL | MIC (K. pneumoniae B 88; B88, agent alone, enzymes SHV, TEM, NDM-1, read-out: MIC): > 32 µg/mL | MIC (K. pneumoniae B 88; B88, with compound of Formula (I) at 8 mcg/ml, read-out: MIC (mcg/ml) of cefepime in presence of a compound of Formula (I) (8 mcg/ml)): ≤ 0.015 µg/mL | MIC (K. pneumoniae S 50; S50, agent alone, enzymes SHV, TEM, NDM-1, read-out: MIC): > 32 µg/mL | MIC (K. pneumoniae S 50; S50, with compound of Formula (I) at 8 mcg/ml, read-out: MIC (mcg/ml) of cefepime in presence of a compound of Formula (I) (8 mcg/ml)): ≤ 0.015 µg/mL | MIC (E. coli S 30; S30, agent alone, enzymes CMY type, TEM, NDM-1, read-out: MIC): > 32 µg/mL | MIC (E. coli S 30; S30, with compound of Formula (I) at 8 mcg/ml, read-out: MIC (mcg/ml) of cefepime in presence of a compound of Formula (I) (8 mcg/ml)): ≤ 0.015 µg/mL | MIC (P. aeruginosa S 508; S508, agent alone, enzymes VIM-11, read-out: MIC): > 32 µg/mL | MIC (P. aeruginosa S 508; S508, with compound of Formula (I) at 8 mcg/ml, read-out: MIC (mcg/ml) of cefepime in presence of a compound of Formula (I) (8 mcg/ml)): ≤ 0.06 µg/mL | MIC (E. coli S 35; S35, agent alone, enzymes TEM, NDM-1, read-out: MIC): > 32 µg/mL | MIC (E. coli S 35; S35, with compound of Formula (I) at 8 mcg/ml, read-out: MIC (mcg/ml) of cefepime in presence of a compound of Formula (I) (8 mcg/ml)): ≤ 0.015 µg/mL | MIC (K. pneumoniae B 77; B77, agent alone, enzymes SHV, TEM, NDM-1, read-out: MIC): > 32 µg/mL | MIC (K. pneumoniae B 77; B77, with compound of Formula (I) at 8 mcg/ml, read-out: MIC (mcg/ml) of cefepime in presence of a compound of Formula (I) (8 mcg/ml)): ≤ 0.25 µg/mL | MIC ([1]; H113720186, agent alone, enzymes IMP, read-out: MIC): > 32 µg/mL | MIC ([1]; H113720186, with compound of Formula (I) at 8 mcg/ml, read-out: MIC (mcg/ml) of cefepime in presence of a compound of Formula (I) (8 mcg/ml)): ≤ 0.5 µg/mL | MIC (E. coli M 44; M44, agent alone, enzymes TEM, NDM-1, read-out: MIC): > 32 µg/mL | MIC (E. coli M 44; M44, with compound of Formula (I) at 8 mcg/ml, read-out: MIC (mcg/ml) of cefepime in presence of a compound of Formula (I) (8 mcg/ml)): ≤ 0.015 µg/mL | MIC (E. coli S 330; S330, agent alone, enzymes NDM, read-out: MIC): > 32 µg/mL | MIC (E. coli S 330; S330, with compound of Formula (I) at 8 mcg/ml, read-out: MIC (mcg/ml) of cefepime in presence of a compound of Formula (I) (8 mcg/ml)): ≤ 0.015 µg/mL | MIC (K. pneumoniae S 48; S48, agent alone, enzymes SHV, TEM, NDM-1, read-out: MIC): > 32 µg/mL | MIC (K. pneumoniae S 48; S48, with compound of Formula (I) at 8 mcg/ml, read-out: MIC (mcg/ml) of cefepime in presence of a compound of Formula (I) (8 mcg/ml)): ≤ 0.015 µg/mL | MIC (P. aeruginosa S 513; S513, agent alone, enzymes VIM-6, read-out: MIC): > 32 µg/mL | MIC (P. aeruginosa S 513; S513, with compound of Formula (I) at 8 mcg/ml, read-out: MIC (mcg/ml) of cefepime in presence of a compound of Formula (I) (8 mcg/ml)): ≤ 0.06 µg/mL | MIC (P. aeruginosa Q-111; Q111, agent alone, enzymes OXA-4, OXA-11, read-out: MIC): > 32 µg/mL | MIC (P. aeruginosa Q-111; Q111, with compound of Formula (I) at 8 mcg/ml, read-out: MIC (mcg/ml) of cefepime in presence of a compound of Formula (I) (8 mcg/ml)): ≤ 0.06 µg/mL | MIC (E. coli S 33; S33, agent alone, enzymes TEM, NDM-1, read-out: MIC): > 32 µg/mL | MIC (E. coli S 33; S33, with compound of Formula (I) at 8 mcg/ml, read-out: MIC (mcg/ml) of cefepime in presence of a compound of Formula (I) (8 mcg/ml)): ≤ 0.015 µg/mL | MIC (P. aeruginosa S 504; S504, agent alone, enzymes VIM-6, read-out: MIC): > 32 µg/mL | MIC (P. aeruginosa S 504; S504, with compound of Formula (I) at 8 mcg/ml, read-out: MIC (mcg/ml) of cefepime in presence of a compound of Formula (I) (8 mcg/ml)): ≤ 0.06 µg/mL | MIC (K. pneumoniae M 3; M3, agent alone, enzymes SHV, CTXM, TEM, NDM-1, read-out: MIC): > 32 µg/mL | MIC (K. pneumoniae M 3; M3, with compound of Formula (I) at 8 mcg/ml, read-out: MIC (mcg/ml) of cefepime in presence of a compound of Formula (I) (8 mcg/ml)): ≤ 0.015 µg/mL | MIC (E. coli S 16; S16, agent alone, enzymes CMY type, TEM, DHA, read-out: MIC): > 32 µg/mL | MIC (E. coli S 16; S16, with compound of Formula (I) at 8 mcg/ml, read-out: MIC (mcg/ml) of cefepime in presence of a compound of Formula (I) (8 mcg/ml)): ≤ 0.015 µg/mL | MICs (range over the strains) ([2]; agent alone, resistant strains of E. coli, K. pneumonia and P. aeruginosa): 16 to 64 µg/mL | MIC values of cefepime in presence of the compound of Formula (I) (range over the strains) ([2]; with compound of Formula (I) at 8 mcg/ml): 0.015 to 1 µg/mL | Bacterial count ([3]; 2 hours): 6.9 Log CFU/ml | Bacterial count ([3]; 4 hours): 8.23 Log CFU/ml | Bacterial count ([3]; 6 hours): 8.23 Log CFU/ml | Change in bacterial count (in words) [3, 5]: no decrease in bacterial count was observed | Bacterial count ([4]; 2 hours): 6.17 Log CFU/ml | Bacterial count ([4]; 4 hours): 7.11 Log CFU/ml | Bacterial count ([4]; 6 hours): 8.69 Log CFU/ml | Change in bacterial count (in words) [4, 5]: no decrease in bacterial count was observed
